Results published in ChEMBL document CHEMBL1201862, “PubChem BioAssay data set” (2004).
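A five-concentration, 48-hour dose response in 96-well plates underlies each endpoint, interpolated linearly between surrounding concentrations. GI50: concentration for 50% inhibition of growth.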 Calls of active or inactive are those of the source. Cut-off read from the data, not from the text of the source: active = GI50 up to about 1.1 µM and inactive = higher.

Columns and labels:
Experiment in all cases: DTP human tumour cell line panel, 48 h
A549 = system: A549
ACHN = system: ACHN
COLO 205 = system: COLO 205
DU-145 = system: DU-145
HL-60 = system: HL-60
HOP-92 = system: HOP-92
IGROV-1 = system: IGROV-1
MDA-N = system: MDA-N
NCI-H23 = system: NCI-H23
NCI-H460 = system: NCI-H460
NCI-H522 = system: NCI-H522
OVCAR-4 = system: OVCAR-4
OVCAR-8 = system: OVCAR-8
SF-268 = system: SF-268
SF-295 = system: SF-295
SK-OV-3 = system: SK-OV-3
SNB-19 = system: SNB-19
T47D = system: T47D
UACC-62 = system: UACC-62
BT-549 = system: BT-549

| SMILES | GI50 (A549) | GI50 (ACHN) | GI50 (COLO 205) | GI50 (DU-145) | GI50 (HL-60) | GI50 (HOP-92) | GI50 (IGROV-1) | GI50 (MDA-N) | GI50 (NCI-H23) | GI50 (NCI-H460) | GI50 (NCI-H522) | GI50 (OVCAR-4) | GI50 (OVCAR-8) | GI50 (SF-268) | GI50 (SF-295) | GI50 (SK-OV-3) | GI50 (SNB-19) | GI50 (T47D) | GI50 (UACC-62) | GI50 (BT-549) |
| --- | --- | --- | --- | --- | --- | --- | --- | --- | --- | --- | --- | --- | --- | --- | --- | --- | --- | --- | --- | --- |
| Cc1ccc(S(=O)(=O)n2c3c(c4ccccc42)CCN2C(=O)C(S(=O)(=O)c4ccccc4)=CCC32)cc1 (configuration not stated) | 1.22 µM (inactive) | 0.193 µM (active) | 0.236 µM (active) | 0.17 µM (active) | 0.233 µM (active) | 0.149 µM (active) | 0.184 µM (active) | 0.192 µM (active) | 0.158 µM (active) | 0.368 µM (active) | 0.259 µM (active) | 0.179 µM (active) | 0.167 µM (active) | 0.238 µM (active) | 1.79 µM (inactive) | 1.3 µM (inactive) | 0.652 µM (active) | 0.154 µM (active) | 0.27 µM (active) | – |
| COc1ccc(NC(=O)CC(=O)n2nc(-c3ccccc3)c(/N=N/c3ccccc3C)c2-c2ccccc2)cc1 | 23.6 µM (inactive) | 26.1 µM (inactive) | > 61.7 µM (inactive) | 45.8 µM (inactive) | 54.6 µM (inactive) | 15.6 µM (inactive) | 21.4 µM (inactive) | > 100 µM (inactive) | 22.1 µM (inactive) | 22.4 µM (inactive) | 23.6 µM (inactive) | 23.9 µM (inactive) | 28 µM (inactive) | 17.9 µM (inactive) | 23.3 µM (inactive) | 19.9 µM (inactive) | 25.2 µM (inactive) | 22.7 µM (inactive) | 19.2 µM (inactive) | – |
| CC1=CC(=O)/C(=C(/C)NCCN(CCN/C(C)=C2\C(=O)C=C(C)OC2=O)CCN/C(C)=C2\C(=O)C=C(C)OC2=O)C(=O)O1 | > 100 µM (inactive) | > 100 µM (inactive) | > 100 µM (inactive) | – | > 100 µM (inactive) | – | > 100 µM (inactive) | > 100 µM (inactive) | – | > 100 µM (inactive) | > 100 µM (inactive) | > 100 µM (inactive) | > 100 µM (inactive) | > 100 µM (inactive) | > 100 µM (inactive) | > 100 µM (inactive) | > 100 µM (inactive) | > 100 µM (inactive) | – | – |
| O=C(CC(C(=O)c1cccs1)c1ccsc1)c1ccc(Cl)cc1 (configuration not stated) | > 100 µM (inactive) | > 100 µM (inactive) | > 100 µM (inactive) | > 100 µM (inactive) | > 100 µM (inactive) | – | > 100 µM (inactive) | > 100 µM (inactive) | > 100 µM (inactive) | > 100 µM (inactive) | – | > 100 µM (inactive) | > 100 µM (inactive) | > 100 µM (inactive) | > 100 µM (inactive) | > 100 µM (inactive) | > 100 µM (inactive) | > 100 µM (inactive) | > 100 µM (inactive) | – |
| C=CCOC(=O)N1c2ccc(O)cc2[C@@]23O[C@@]24[C@@H]1C#C/C=C\C#C[C@]3(O)C(OC)(OC)C[C@@H]4C | 50.5 µM (inactive) | 17.7 µM (inactive) | 19.1 µM (inactive) | 46.6 µM (inactive) | 32.8 µM (inactive) | 16.4 µM (inactive) | 25.8 µM (inactive) | 28.8 µM (inactive) | 24.4 µM (inactive) | 24.4 µM (inactive) | 31.3 µM (inactive) | 0.258 µM (active) | 32.5 µM (inactive) | 36.5 µM (inactive) | 36.9 µM (inactive) | 61 µM (inactive) | 58.2 µM (inactive) | > 100 µM (inactive) | 33.7 µM (inactive) | – |
| O=C1NC2(CCCC2)C2CCCCC12O (configuration not stated) | > 100 µM (inactive) | > 100 µM (inactive) | > 100 µM (inactive) | – | > 100 µM (inactive) | > 100 µM (inactive) | > 100 µM (inactive) | – | > 100 µM (inactive) | > 100 µM (inactive) | > 100 µM (inactive) | > 100 µM (inactive) | > 100 µM (inactive) | > 100 µM (inactive) | > 100 µM (inactive) | > 100 µM (inactive) | > 100 µM (inactive) | – | > 100 µM (inactive) | – |
| COc1ccc(-c2oc3c(OC)c(OC)c(OC)c(O)c3c(=O)c2OC)cc1O | 0.36 µM (active) | 0.0656 µM (active) | 11.1 µM (inactive) | – | < 0.01 µM (active) | < 0.01 µM (active) | 0.462 µM (active) | – | 0.254 µM (active) | 0.126 µM (active) | < 0.01 µM (active) | 9.23 µM (inactive) | 0.341 µM (active) | 0.0859 µM (active) | 0.478 µM (active) | 0.139 µM (active) | 0.347 µM (active) | – | 0.0481 µM (active) | – |
| CC1CCC(C(C)C2C(O)CC3C4CC=C5CC(O)CCC5(C)C4CCC32C)NC1 (configuration not stated) | 83 µM (inactive) | 42 µM (inactive) | > 100 µM (inactive) | 69.8 µM (inactive) | 17.3 µM (inactive) | 23.7 µM (inactive) | – | – | 36.9 µM (inactive) | 48 µM (inactive) | 63 µM (inactive) | 20.2 µM (inactive) | 15.9 µM (inactive) | > 100 µM (inactive) | – | > 100 µM (inactive) | 25.7 µM (inactive) | 62.1 µM (inactive) | 49.5 µM (inactive) | > 100 µM (inactive) |
| O=C1NC(=S)NC(=O)C1=Cc1ccc([N+](=O)[O-])o1 | > 100 µM (inactive) | 18.4 µM (inactive) | 20.2 µM (inactive) | – | 27.1 µM (inactive) | 20.7 µM (inactive) | 21.6 µM (inactive) | – | 16.9 µM (inactive) | > 100 µM (inactive) | 19.9 µM (inactive) | 17.3 µM (inactive) | 29.4 µM (inactive) | 39.8 µM (inactive) | 78.3 µM (inactive) | > 100 µM (inactive) | > 100 µM (inactive) | – | 19.4 µM (inactive) | – |
| N#Cc1c(-c2ccccc2)[nH]c(=O)n(C2OC(CO)C(O)C(O)C2O)c1=O (configuration not stated) | > 100 µM (inactive) | > 100 µM (inactive) | > 100 µM (inactive) | > 100 µM (inactive) | – | > 100 µM (inactive) | – | – | > 100 µM (inactive) | > 100 µM (inactive) | – | > 100 µM (inactive) | > 100 µM (inactive) | > 100 µM (inactive) | > 100 µM (inactive) | > 100 µM (inactive) | > 100 µM (inactive) | > 100 µM (inactive) | > 100 µM (inactive) | > 100 µM (inactive) |
| O=C(/C=C/c1ccc(Cl)c(Cl)c1)c1ccccc1Cl | 15.8 µM (inactive) | 15.3 µM (inactive) | 16.1 µM (inactive) | – | 6.61 µM (inactive) | 16.7 µM (inactive) | 9.84 µM (inactive) | – | 13.4 µM (inactive) | 11.6 µM (inactive) | 11.8 µM (inactive) | 14.1 µM (inactive) | 6 µM (inactive) | 6.64 µM (inactive) | 13.7 µM (inactive) | 24.4 µM (inactive) | 10.3 µM (inactive) | – | 12.8 µM (inactive) | – |
| Nc1ncnc2c1ncn2C1C=CC(CP(=O)(O)O)C1 (configuration not stated) | > 100 µM (inactive) | > 100 µM (inactive) | > 100 µM (inactive) | > 100 µM (inactive) | – | – | > 100 µM (inactive) | > 100 µM (inactive) | > 100 µM (inactive) | > 100 µM (inactive) | – | > 100 µM (inactive) | > 100 µM (inactive) | > 100 µM (inactive) | > 100 µM (inactive) | > 100 µM (inactive) | > 100 µM (inactive) | > 100 µM (inactive) | > 100 µM (inactive) | – |
